In patent US7427625B2, “Substituted thiatriazaacenaphthylene-6-carbonitrile kinase inhibitors” (Janssen Pharmaceutica, N.V., priority 2006, dated 2008):

How the values were obtained:
Format in all cases: biochemical
[1] = molecular target: T1, EGFR (Homo sapiens, UniProt P00533); assay: EGFR Kinase Assay; conditions: for inhibition at 2 µM: test concentration of 2 μM, read-out: EGFR percent inhibition
T1 construct: The intracellular portion of EGFR started at nucleotide 2189 (corresponding to amino acid 667) and ended at the termination codon; made in house; host or cells: Sf9 insect cells (baculovirus)
Method in brief: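 GST-fused EGFR intracellular domain (aa 667 to end), Sf9-expressed, phosphorylating biotinylated polyGluTyr with 5 μM ATP plus γ-33P ATP in Tris pH 8.0, MgCl2, vanadate, 1 mM DTT; 1 h, 30 °C, streptavidin Flashplate scintillation read. Triplicate 16-point half-log series from 200 uM; IC50 from % inhibition vs log concentration, else % inhibition at 2 μM.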

[2] = molecular target: T2, VEGF-R2 (Rattus norvegicus, UniProt O08775); assay: VEGF-R2 Screening Assay
T2 construct: polyhistidine (N)

[3] = molecular target: T3, c-Src kinase (Homo sapiens, UniProt P12931); assay: c-Src Kinase Assay; conditions: for inhibition at 2 µM: test concentration of 2 μM, read-out: c-Src percent inhibition
T3 construct: purchased Upstate Biotechnology, Lake Placid, N.Y
Procedure: A mixture of a 10× kinase buffer (80 mM MOPS at pH 7.0, 2 mM EDTA and 100 mM Magnesium Chloride), ATP (5 μM final from a 10 mM stock), a Cdc2 peptide KVEKIGEGTYVVYK (100 μM final from a 2.5 mM stock), γ-^33P ATP (10 μCi/μL stock) and water (20 μL/well) was added to each well of a Streptavidin Flashplate.
Test compound in 100% DMSO (0.5 μL) was added to the appropriate wells. Diluted c-Src kinase (human) (Upstate Biotechnology, Lake Placid, N.Y.) (diluted in a buffer consisting of 20 mM MOPS at pH 7.0, 1 mM EDTA, β-mercaptoethanol (0.1%), Brij-35 (0.01%), glycerol (5%) and 1 mg/mL bovine serum albumin) (2.5 μL) was added to the wells to initiate the reactions. The reaction plates were incubated at 30° C. for 40 min. The reaction was terminated by the addition of a 3% phosphoric acid solution (5 μL). The reaction product (10 μL) was spotted onto a P30 filtermat and washed for 5 minutes in phosphoric acid (75 mM). The wash sequence was repeated two more times, followed with one final wash in methanol. The plates were then dried, sealed and read on the TopCount scintillation counter after adding 30 μL scintillation fluid.
Percent inhibition was derived according to the procedure described in Example 2. For those compounds without an IC50, the percent inhibition results are shown at a test concentration of 2 μM.

T2 sequence (O08775 786-1343): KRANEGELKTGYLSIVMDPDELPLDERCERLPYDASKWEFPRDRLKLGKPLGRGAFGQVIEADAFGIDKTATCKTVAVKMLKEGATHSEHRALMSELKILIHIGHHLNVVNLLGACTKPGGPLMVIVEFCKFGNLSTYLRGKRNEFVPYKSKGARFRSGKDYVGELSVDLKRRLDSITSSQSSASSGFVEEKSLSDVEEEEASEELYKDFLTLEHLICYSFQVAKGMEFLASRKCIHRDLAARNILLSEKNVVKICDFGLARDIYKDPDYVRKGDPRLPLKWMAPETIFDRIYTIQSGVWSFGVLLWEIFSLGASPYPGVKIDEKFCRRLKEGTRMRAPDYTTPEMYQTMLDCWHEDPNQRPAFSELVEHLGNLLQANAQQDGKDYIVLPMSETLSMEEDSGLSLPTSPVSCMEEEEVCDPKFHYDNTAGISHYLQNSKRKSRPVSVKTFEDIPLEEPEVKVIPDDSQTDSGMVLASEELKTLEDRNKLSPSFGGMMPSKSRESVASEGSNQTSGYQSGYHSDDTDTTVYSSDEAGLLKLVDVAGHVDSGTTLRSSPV
T1 sequence (P00533 669-1210 limits assumed): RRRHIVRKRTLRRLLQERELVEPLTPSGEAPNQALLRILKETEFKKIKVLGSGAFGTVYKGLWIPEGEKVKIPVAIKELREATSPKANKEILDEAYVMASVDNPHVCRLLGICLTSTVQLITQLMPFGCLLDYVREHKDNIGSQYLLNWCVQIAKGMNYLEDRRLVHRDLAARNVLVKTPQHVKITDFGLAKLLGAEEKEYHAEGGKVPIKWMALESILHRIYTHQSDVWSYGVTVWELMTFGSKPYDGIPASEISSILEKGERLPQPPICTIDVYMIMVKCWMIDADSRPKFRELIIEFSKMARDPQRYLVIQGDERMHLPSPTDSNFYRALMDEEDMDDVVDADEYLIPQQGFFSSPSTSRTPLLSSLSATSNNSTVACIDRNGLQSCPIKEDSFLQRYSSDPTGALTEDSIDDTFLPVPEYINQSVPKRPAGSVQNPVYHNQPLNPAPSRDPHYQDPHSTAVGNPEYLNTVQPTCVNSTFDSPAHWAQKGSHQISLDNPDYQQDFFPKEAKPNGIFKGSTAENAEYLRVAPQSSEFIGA
T3 sequence (P12931 whole entry): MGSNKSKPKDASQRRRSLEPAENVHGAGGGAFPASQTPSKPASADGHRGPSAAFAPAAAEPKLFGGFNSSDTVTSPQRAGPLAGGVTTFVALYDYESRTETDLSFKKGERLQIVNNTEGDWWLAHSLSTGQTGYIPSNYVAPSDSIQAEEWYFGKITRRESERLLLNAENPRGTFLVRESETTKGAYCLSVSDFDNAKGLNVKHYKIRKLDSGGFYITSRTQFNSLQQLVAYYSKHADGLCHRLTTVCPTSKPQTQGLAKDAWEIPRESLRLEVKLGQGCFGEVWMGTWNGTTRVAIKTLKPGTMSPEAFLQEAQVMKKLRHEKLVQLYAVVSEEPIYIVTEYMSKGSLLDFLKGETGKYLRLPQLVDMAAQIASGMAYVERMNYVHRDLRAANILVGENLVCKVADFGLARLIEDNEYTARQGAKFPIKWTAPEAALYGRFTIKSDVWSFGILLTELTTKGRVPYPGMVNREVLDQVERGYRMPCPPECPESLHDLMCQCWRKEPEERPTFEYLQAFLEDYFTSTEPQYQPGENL

Compound | IC50 [1] | IC50 [2] | IC50 [3] | inhibition at 2 µM [3] | inhibition at 2 µM [1]
CN1CCC(NC(=O)c2sc3ncc(C#N)c4c3c2NC(=O)N4c2c(Cl)ccc3c2OCO3)CC1 [Cpd 10, 5-(5-chloro-benzo[1,3]dioxol-4-yl)-6-cyano-4-oxo-4,5-dihydro-3H-1-thia-3,5,8-triaza-acenaphthylene-2-carboxylic acid (1-methyl-piperidin-4-yl)-amide] | 3.96 µM | ~100 µM | 0.087 µM | – | –
CN1CCN(CCc2ccc(NC(=O)c3sc4ncc(C#N)c5c4c3NC(=O)N5c3c(Cl)ccc4c3OCO4)cc2)CC1 [Cpd 12, 5-(5-chloro-benzo[1,3]dioxol-4-yl)-6-cyano-4-oxo-4,5-dihydro-3H-1-thia-3,5,8-triaza-acenaphthylene-2-carboxylic acid {4-[2-(4-methyl-piperazin-1-yl)-ethyl]-phenyl}-amide] | 2.7 µM | > 100 µM | – | 91% | –
Cc1nc2sc(C(=O)Nc3ccc(CN4CCOCC4)cc3)c3c2c(c1C#N)N(c1c(Cl)ccc2c1OCO2)C(=O)N3 [Cpd 9, 5-(5-chloro-benzo[1,3]dioxol-4-yl)-6-cyano-7-methyl-4-oxo-4,5-dihydro-3H-1-thia-3,5,8-triaza-acenaphthylene-2-carboxylic acid (4-morpholin-4-ylmethyl-phenyl)-amide] | – | > 10 µM | – | 11% | 14%
N#Cc1c(N2CCOCC2)nc2sc(C(=O)Nc3ccc(CN4CCOCC4)cc3)c3c2c1N(c1c(Cl)ccc2c1OCO2)C(=O)N3 [Cpd 8, 5-(5-chloro-benzo[1,3]dioxol-4-yl)-6-cyano-7-morpholin-4-yl-4-oxo-4,5-dihydro-3H-1-thia-3,5,8-triaza-acenaphthylene-2-carboxylic acid (4-morpholin-4-ylmethyl-phenyl)-amide] | – | 14.1 µM | – | -21% | -6%
N#Cc1cnc2sc(C(=O)Nc3ccc(CCN4CCCCC4)cc3)c3c2c1N(c1c(Cl)ccc2c1OCO2)C(=O)N3 [Cpd 11, 5-(5-chloro-benzo[1,3]dioxol-4-yl)-6-cyano-4-oxo-4,5-dihydro-3H-1-thia-3,5,8-triaza-acenaphthylene-2-carboxylic acid [4-(2-piperidin-1-yl-ethyl)-phenyl]-amide] | 1.6 µM | > 100 µM | 0.0712 µM | – | –
CCOC(=O)c1sc2nc(N3CCOCC3)c(C#N)c3c2c1NC(=O)N3c1c(Cl)ccc2c1OCO2 [Cpd 7, 5-(5-chloro-benzo[1,3]dioxol-4-yl)-6-cyano-7-morpholin-4-yl-4-oxo-4,5-dihydro-3H-1-thia-3,5,8-triaza-acenaphthylene-2-carboxylic acid ethyl ester] | – | > 100 µM | – | -1% | -5%
COc1cc(N2C(=O)Nc3c(C(=O)Nc4ccc(CN5CCOCC5)cc4)sc4ncc(C#N)c2c34)c(Cl)cc1Cl [Cpd 5, 6-cyano-5-(2,4-dichloro-5-methoxy-phenyl)-4-oxo-4,5-dihydro-3H-1-thia-3,5,8-triaza-acenaphthylene-2-carboxylic acid (4-morpholin-4-ylmethyl-phenyl)-amide] | – | > 100 µM | 0.355 µM | – | 1%
N#Cc1cnc2sc(C(=O)Nc3ccc(CN4CCOCC4)cc3)c3c2c1N(c1c(Cl)ccc2c1OCO2)C(=O)N3 [Cpd 4, 5-(5-chloro-benzo[1,3]dioxol-4-yl)-6-cyano-4-oxo-4,5-dihydro-3H-1-thia-3,5,8-triaza-acenaphthylene-2-carboxylic acid (4-morpholin-4-ylmethyl-phenyl)-amide] | – | > 10 µM | 0.0574 µM | – | 36%
COc1cc(N2C(=O)Nc3c(C(=O)Nc4ccc(CCN5CCOCC5)cc4)sc4ncc(C#N)c2c34)c(Cl)cc1Cl [Cpd 6, 6-cyano-5-(2,4-dichloro-5-methoxy-phenyl)-4-oxo-4,5-dihydro-3H-1-thia-3,5,8-triaza-acenaphthylene-2-carboxylic acid [4-(2-morpholin-4-yl-ethyl)-phenyl]-amide] | – | > 100 µM | 0.368 µM | – | 7%

Next, values leading:

IC50 [1] | IC50 [2] | IC50 [3] | inhibition at 2 µM [3] | inhibition at 2 µM [1] | Compound
0.093 µM | > 100 µM | – | – | – | COc1cc(NC(=O)c2sc3ncc(C#N)c4c3c2NC(=O)N4c2ccc(Oc3ccccc3)cc2)ccc1CN1CCOCC1 [Cpd 45, 6-cyano-4-oxo-5-(4-phenoxy-phenyl)-4,5-dihydro-3H-1-thia-3,5,8-triaza-acenaphthylene-2-carboxylic acid (3-methoxy-4-morpholin-4-ylmethyl-phenyl)-amide]
– | > 100 µM | – | 11% | -9% | CCOC(=O)c1sc2nc(O)c(C#N)c3c2c1NC(=O)N3c1ccncc1 [Cpd 14, 6-cyano-7-hydroxy-4-oxo-5-pyridin-4-yl-4,5-dihydro-3H-1-thia-3,5,8-triaza-acenaphthylene-2-carboxylic acid ethyl ester]
– | > 100 µM | – | – | 39% | N#Cc1cnc2sc(C(=O)Nc3ccc(CCN4CCCCC4)cc3)c3c2c1N(c1ccc(Oc2ccccc2)cc1)C(=O)N3 [Cpd 48, 6-cyano-4-oxo-5-(4-phenoxy-phenyl)-4,5-dihydro-3H-1-thia-3,5,8-triaza-acenaphthylene-2-carboxylic acid [4-(2-piperidin-1-yl-ethyl)-phenyl]-amide]
0.152 µM | > 100 µM | – | – | – | CC(C)(C)OC(=O)NC1CCN(Cc2ccc(NC(=O)c3sc4ncc(C#N)c5c4c3NC(=O)N5c3c(Cl)ccc4c3OCO4)cc2)CC1 [Cpd 46, [1-(4-{[5-(5-chloro-benzo[1,3]dioxol-4-yl)-6-cyano-4-oxo-4,5-dihydro-3H-1-thia-3,5,8-triaza-acenaphthylene-2-carbonyl]-amino}-benzyl)-piperidin-4-yl]-carbamic acid tert-butyl ester]
– | > 100 µM | – | – | 7% | CN(C)C1CCN(C(=O)c2sc3ncc(C#N)c4c3c2NC(=O)N4c2c(Cl)ccc3c2OCO3)CC1 [Cpd 41, 5-(5-chloro-benzo[1,3]dioxol-4-yl)-2-(4-dimethylamino-piperidine-1-carbonyl)-4-oxo-4,5-dihydro-3H-1-thia-3,5,8-triaza-acenaphthylene-6-carbonitrile]
0.85 µM | > 100 µM | – | – | – | CN(C)C1CCN(Cc2ccc(NC(=O)c3sc4ncc(C#N)c5c4c3NC(=O)N5c3c(Cl)ccc4c3OCO4)cc2)CC1 [Cpd 42, 5-(5-chloro-benzo[1,3]dioxol-4-yl)-6-cyano-4-oxo-4,5-dihydro-3H-1-thia-3,5,8-triaza-acenaphthylene-2-carboxylic acid [4-(4-dimethylamino-piperidin-1-ylmethyl)-phenyl]-amide]
– | > 10 µM | – | – | 38% | COC1CCN(Cc2ccc(NC(=O)c3sc4ncc(C#N)c5c4c3NC(=O)N5c3c(Cl)ccc4c3OCO4)cc2)CC1 [Cpd 18, 5-(5-chloro-benzo[1,3]dioxol-4-yl)-6-cyano-4-oxo-4,5-dihydro-3H-1-thia-3,5,8-triaza-acenaphthylene-2-carboxylic acid [4-(4-methoxy-piperidin-1-ylmethyl)-phenyl]-amide]
0.624 µM | > 100 µM | – | 90% | – | CC1CCN(Cc2ccc(NC(=O)c3sc4ncc(C#N)c5c4c3NC(=O)N5c3c(Cl)ccc4c3OCO4)cc2)CC1 [Cpd 19, 5-(5-chloro-benzo[1,3]dioxol-4-yl)-6-cyano-4-oxo-4,5-dihydro-3H-1-thia-3,5,8-triaza-acenaphthylene-2-carboxylic acid [4-(4-methyl-piperidin-1-ylmethyl)-phenyl]-amide]
0.224 µM | > 100 µM | – | – | – | N#Cc1cnc2sc(C(=O)Nc3ccc(CN4CCCCC4)cc3)c3c2c1N(c1ccc(Oc2ccccc2)cc1)C(=O)N3 [Cpd 49, 6-cyano-4-oxo-5-(4-phenoxy-phenyl)-4,5-dihydro-3H-1-thia-3,5,8-triaza-acenaphthylene-2-carboxylic acid (4-piperidin-1-ylmethyl-phenyl)-amide]
– | > 10 µM | – | 78% | 23% | N#Cc1cnc2sc(C(=O)Nc3ccc(CCN4CCOCC4)cc3)c3c2c1N(c1c(Cl)ccc2c1OCO2)C(=O)N3 [Cpd 13, 5-(5-chloro-benzo[1,3]dioxol-4-yl)-6-cyano-4-oxo-4,5-dihydro-3H-1-thia-3,5,8-triaza-acenaphthylene-2-carboxylic acid [4-(2-morpholin-4-yl-ethyl)-phenyl]-amide]
– | > 100 µM | – | -0.6% | 6% | CCOC(=O)c1sc2nc(-c3cc(F)ccc3Cl)c(C#N)c3c2c1NC(=O)N3c1ccncc1 [Cpd 15, 7-(2-chloro-5-fluoro-phenyl)-6-cyano-4-oxo-5-pyridin-4-yl-4,5-dihydro-3H-1-thia-3,5,8-triaza-acenaphthylene-2-carboxylic acid ethyl ester]
